Patent US20220273598A1, “METHOD FOR TREATING ALZHEIMER'S DISEASE BY INHIBITING UPTAKE OF AMINO ACIDS BY T CELLS” (SHANGHAI GREEN VALLEY PHARMACEUTICAL CO., LTD., priority 2019, published 2022)
“Also recorded” adds a separate entry of the source.

Legend:
[1] = target: LAT1 (Homo sapiens, UniProt Q01650); conditions: supplier description; cited from earlier work
[2] = system: 5×FAD transgenic (Tg) mice; experiment: Flow cytometry of Th1 cells and M1 microglia in brain homogenate; assay type: in vivo, mouse; conditions: 6-month-old 5×FAD mice, 50 mg/kg intraperitoneal every day for one month, versus vehicle
Experimental: Animals. […] Mice were randomly assigned to different groups before treatment. […] The mouse brain was collected and stained for immune cell analysis and cytokine analysis. […] For OM1 treatment, at the age of 6.5 months, based on 450 mg b.i.d. (twice a day) in the phase III trial, Tg mice were treated with 100 mg/kg OM1 by oral administration once a day for one month. […] The brains and feces of the mice were then used for different analyses.
Flow cytometry sample preparation and analysis. Mice were anesthetized, blood samples were collected into EDTA-containing tubes, and red blood cells were removed using 1×red blood lysis buffer. Before tissue collection, the brains were perfused with ice-cold PBS to avoid sampling the circulating blood immune cells, and the brains were removed, chopped into pieces and dissected according to the introduction of the Adult Brain Dissociation Kit (Miltenyi, Cat No. 130-107-677) using the gentleMACS dissociator (Miltenyi Biotec). The brain homogenate was filtered through a 70-μm cell strainer and centrifuged at 300×g for 5 min at 4° C. The cell pellet was resuspended in cold PBS buffer and centrifuged again at 300×g for 5 min at 4° C. All samples were counted and adjusted to a density of 2-3×10^6/100 μL, labeled with a Live/Dead kit for 30 min, and then centrifuged at 500×g for 3 min at 4° C. The cells were resuspended in 100 μL PBS buffer, blocked with anti-CD16/32 (Biolegend, Cat No. 101320) for 10 min, and incubated with the antibody according to the manufacturers' protocols at 4° C. for 30 min. […]

[3] = target: T1, SLC7A5 (Mus musculus, UniProt Q9Z127); experiment: Uptake of 13C-labelled phenylalanine by naive CD4+ T cells; assay type: cell-based; conditions: 0.5 h incubation
T1 construct: endogenous in cells; host or cells: naive CD4+ T cells from splenocytes of C57BL/6 mice (Th0 / IL-12-induced Th1)
T1 sequence (Q9Z127 whole entry): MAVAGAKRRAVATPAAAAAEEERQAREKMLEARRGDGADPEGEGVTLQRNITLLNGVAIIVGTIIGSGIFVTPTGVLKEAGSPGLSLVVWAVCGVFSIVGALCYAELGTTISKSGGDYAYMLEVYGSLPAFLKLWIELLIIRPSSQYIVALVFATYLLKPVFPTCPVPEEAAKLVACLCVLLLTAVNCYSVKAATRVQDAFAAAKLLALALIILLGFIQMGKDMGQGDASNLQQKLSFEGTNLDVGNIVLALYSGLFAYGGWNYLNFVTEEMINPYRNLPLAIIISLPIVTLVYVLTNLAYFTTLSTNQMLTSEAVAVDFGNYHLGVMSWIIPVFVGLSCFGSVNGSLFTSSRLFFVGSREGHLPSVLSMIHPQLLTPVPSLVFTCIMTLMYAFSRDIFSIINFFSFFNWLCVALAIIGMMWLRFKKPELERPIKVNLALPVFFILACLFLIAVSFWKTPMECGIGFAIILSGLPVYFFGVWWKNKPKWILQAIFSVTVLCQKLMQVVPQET
T1 sequence (P10852 whole entry partner): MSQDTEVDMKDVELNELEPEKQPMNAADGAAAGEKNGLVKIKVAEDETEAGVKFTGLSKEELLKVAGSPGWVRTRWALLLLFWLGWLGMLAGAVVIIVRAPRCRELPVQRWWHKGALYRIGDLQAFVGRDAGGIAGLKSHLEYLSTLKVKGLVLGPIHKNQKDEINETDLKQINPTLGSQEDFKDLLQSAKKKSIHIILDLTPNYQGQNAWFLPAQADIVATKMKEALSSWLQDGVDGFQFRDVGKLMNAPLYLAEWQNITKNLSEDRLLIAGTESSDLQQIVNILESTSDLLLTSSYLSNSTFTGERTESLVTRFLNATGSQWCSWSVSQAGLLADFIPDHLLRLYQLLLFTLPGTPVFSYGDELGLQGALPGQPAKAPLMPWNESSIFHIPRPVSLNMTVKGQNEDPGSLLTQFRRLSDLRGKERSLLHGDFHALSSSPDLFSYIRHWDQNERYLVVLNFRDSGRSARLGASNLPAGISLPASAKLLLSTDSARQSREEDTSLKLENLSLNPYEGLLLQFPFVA
Experimental: Uptake of phenylalanine. Naive CD4^+ T cells were separated from the splenocytes of 8-month-old C57BL/6 female mice using the Naive CD4^+ T cell Isolation Kit (Stem Cell, Cat No. 19765) and were induced to Th1 differentiation by 20 ng/mL IL-12. After 3 days, a total of 5×10^5 cells/well Th1 cells and Th0 cells in 0.5 mL of RPMI-1640 medium were plated into 48-well plates. ^13C-labelled phenylalanine and 5 mM amino transporter inhibitor BCH were added into indicated wells. After 0.5 h, cells were collected and washed twice with ice-cold D-PBS. 50 μL deionized water was added and cells were lysed through freezing and thawing twice at −80° C. The cell lysate was centrifuged at 12000×g for 10 min and ^13C-labelled phenylalanine in the supernatant was analyzed by Mass spectrometry.

[4] = system: C57 mice; experiment: Intraperitoneal injection of phenylalanine and isoleucine, blood Th1 cells by FACS; assay type: in vivo, mouse; conditions: WT mice, intraperitoneal injection 50 mg/kg for 4 days
Experimental: Animals. Tg mice and co-housed WT mice (corresponding WT mice generated by mating Tg mice and C57 mice) were housed in the same cage after birth. WT mice (C57) were housed in separate cages to avoid cross-transfer of microbiota. All mice were kept in a 23° C. room with a 12-hour (h) light-dark cycle. Mice were randomly assigned to different groups before treatment. For time course analysis of Tg mice, male and female Tg mice were sacrificed at 2, 3, 5, 7 and 9 months of age. The mouse brain was collected and stained for immune cell analysis and cytokine analysis. Before the mice were sacrificed, feces were collected for gut microbiota analysis. For OM1 treatment, at the age of 6.5 months, based on 450 mg b.i.d. (twice a day) in the phase III trial, Tg mice were treated with 100 mg/kg OM1 by oral administration once a day for one month. Behavioral tests were performed to monitor cognitive activity after the last treatment. […] All mouse movements that occur in PhenoTyper (HomeCage) are recorded by a computerized tracking system, which calculates the time and number of entrances required to reach 80% of the performance standard (Noldus, Ethovision). […]
Flow cytometry sample preparation and analysis. […] All samples were counted and adjusted to a density of 2-3×10^6/100 μL, labeled with a Live/Dead kit for 30 min, and then centrifuged at 500×g for 3 min at 4° C. […]

[5] = system: naive CD4+ T cells; experiment: In vitro differentiation and proliferation induced by phenylalanine and isoleucine; assay type: cell-based, mouse; conditions: amino acid added directly to naive CD4+ T cell culture; for Th1 cell proliferation: CellTrace
Experimental: In Vitro differentiation and proliferation induced by phenylalanine and isoleucine. Naive CD4^+ T cells were separated from the splenocytes of 8-month-old C57BL/6 female mice using the Naive CD4^+ T cell Isolation Kit (Stem Cell, #19765), and the cells were stained with CellTrace (Thermo Fisher, #C34557). A total of 1×10^5 cells/well in 0.2 mL of RPMI-1640 medium were plated in 96-well plates, and the culture medium was supplemented with cytokines or blocking antibodies. Th0: 10 ng/mL mIL-2; Th1:10 ng/mL mIL-2, 5000 ng/mL 11B11. Phenylalanine (final concentration, 2 mmol/L), isoleucine (final concentration, 2 mmol/L) and OM1 (final concentration, 100 μg/mL) were added into the indicated wells, respectively. After incubation at 37° C. in 5% CO2 for 5 days, cells were acquired on a BD Fortessa cytometer, and data were analyzed using FlowJo software.

LAT1, sequence (Q01650 whole entry, species assumed): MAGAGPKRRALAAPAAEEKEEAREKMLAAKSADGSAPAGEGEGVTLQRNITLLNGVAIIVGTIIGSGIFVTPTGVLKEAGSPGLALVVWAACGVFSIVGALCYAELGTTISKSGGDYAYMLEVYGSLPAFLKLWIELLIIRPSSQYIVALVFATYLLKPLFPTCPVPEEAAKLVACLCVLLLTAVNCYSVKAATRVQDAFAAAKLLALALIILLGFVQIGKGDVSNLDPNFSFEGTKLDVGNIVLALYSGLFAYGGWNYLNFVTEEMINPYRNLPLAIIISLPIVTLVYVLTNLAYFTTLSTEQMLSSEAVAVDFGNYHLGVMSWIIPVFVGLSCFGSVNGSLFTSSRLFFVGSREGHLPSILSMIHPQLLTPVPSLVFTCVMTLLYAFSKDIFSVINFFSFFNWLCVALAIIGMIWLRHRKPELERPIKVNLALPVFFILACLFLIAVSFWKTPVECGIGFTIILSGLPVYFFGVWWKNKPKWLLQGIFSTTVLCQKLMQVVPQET
LAT1, sequence (P08195 102-630 partner, species assumed): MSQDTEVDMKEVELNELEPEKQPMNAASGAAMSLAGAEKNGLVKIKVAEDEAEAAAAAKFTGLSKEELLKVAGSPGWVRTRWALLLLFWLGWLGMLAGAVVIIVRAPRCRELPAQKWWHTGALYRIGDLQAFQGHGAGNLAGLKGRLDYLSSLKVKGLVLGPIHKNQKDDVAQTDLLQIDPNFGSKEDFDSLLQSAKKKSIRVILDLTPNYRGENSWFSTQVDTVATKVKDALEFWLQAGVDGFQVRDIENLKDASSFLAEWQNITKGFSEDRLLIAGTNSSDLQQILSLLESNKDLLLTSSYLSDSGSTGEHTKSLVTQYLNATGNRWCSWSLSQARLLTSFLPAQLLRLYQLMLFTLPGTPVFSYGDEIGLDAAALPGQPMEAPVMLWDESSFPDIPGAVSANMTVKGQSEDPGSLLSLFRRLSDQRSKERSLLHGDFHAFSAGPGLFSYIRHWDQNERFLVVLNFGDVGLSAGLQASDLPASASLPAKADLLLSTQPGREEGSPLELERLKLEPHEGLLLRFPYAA

Structure (SMILES)	LAT1 selectivity [1]	proportion of pro-inflammatory Th1 cells in the mouse brain ([2]; 50 mg/kg)	proportion of pro-inflammatory Th1 cells in the mouse brain ([2]; listed as JPH203, 50 mg/kg)	uptake of 13C-labelled phenylalanine by CD4+ T cells [3]	Th1 cell count in the blood [4]	Th0 cell differentiation into Th1 cells [5]	Th1 cell proliferation [5]
Nc1cc(COc2c(Cl)cc(C[C@H](N)C(=O)O)cc2Cl)c2oc(-c3ccccc3)nc2c1 [JPH 203]	selectively inhibits LAT1	significantly reduces the proportion of Th1 cells in the mouse brain	effectively inhibits the proportion of Th1 cells in the brain; also recorded: significantly downregulated the proportion of pro-inflammatory Th1 cells in the mouse brain	blocked	–	–	–
N[C@@H](Cc1ccccc1)C(=O)O [phenylalanine]	–	–	–	–	increased significantly	increased	increased
CC[C@H](C)[C@H](N)C(=O)O [isoleucine]	–	–	–	–	increased significantly	increased	increased
